Laboratory results published in PubChem BioAssay AID2060491 (Molecular Pharmacology Branch, DTP, NCI, 2025).

System: 857933-349-R-J2-PDC complex spheroids, viability
Assay: Anticancer human tumor 857933-349-R-J2-PDC patient-derived colon adenocarcinoma cell line growth inhibition [GQUAD]
Details: for IC50: curve of first compound; for viability, T/C: stronger effect = lower value
Source text: DNA G-quadruplex Stabilizer Agents in Combinations in Complex Spheroids
A high-throughput screen of multi-cell type tumor spheroids was designed to identify active combinations of DNA G-quadruplex stabilizer agents and targeted small molecules. Complex spheroids include a stromal component modeled by human endothelial cells (HUVEC) and fibroblasts modeled by human mesenchymal stem cells (MSCs). The concentration ranges selected for each drug and investigational agent were based upon clinically achievable concentrations if the clinical Cmax of the agent was known.
Compounds. The drugs and investigational agents: pidnarulex (CX-5461; NSC782164), APTO-253 (NSC789042), BRACO-19 (NSC847499), peposertib (NSC802822), ceralasertib (NSC780249), elimusertib (NSC800525), camonsertib (NSC841442), AZD-1390 (NSC803789), olaparib (NSC753686), talazoparib (NSC767125), ART-558 (NSC835418), sotorasib (NSC818433), MRTX-1133 (NSC836407), SN-38 (NSC673596), topotecan (NSC609699), etoposide (NSC141540), doxorubicin (NSC123127), gemcitabine (NSC613327), 5-fluorouracil (NSC19893), paclitaxel (NSC125973), vemurafenib (NSC761431), panobinostat (NSC761190), R-306465 (JNJ-16241199; NSC773264), adavosertib (NSC754352), TP-3654 (NSC805149), carboplatin (NSC241240), KSQ-4279 (NSC840948), and staurosporine (NSC755774) were obtained from the National Cancer Institute (NCI) Developmental Therapeutics Program Chemical Repository (34). The FDA-approved anticancer drug set is available from the NCI Developmental Therapeutics Program. […] The stock solutions were prepared in dimethyl sulfoxide (DMSO, Sigma-Aldrich, St. Louis, MO, cat. D2650) at 800-fold the tested concentration and stored at -70 degrees C prior to their use. All drugs and investigational agents were tested over a range starting from a high concentration at or near the clinical Cmax and decreasing in half-log increments. If the clinical Cmax for an agent had not been determined, the highest concentration tested was 10 microM.
2.3 Cell Culture. All cells were maintained in an incubator at 37 degrees C and 5% CO2 with 95% humidity. The PDC lines were cultured according to standard operating procedures established by the NCI PDMR. All PDCs were thawed and cultured in Matrigel-coated flasks prepared with a working solution of 1X Ham's F-12 nutrient mix, without supplementation (Invitrogen, cat. 11765054), 100 U/mL penicillin-streptomycin (Invitrogen, cat. 15140122), and 2.5% Matrigel (Corning Inc., cat. 354248) for the first three passages. The 857933-349-R-J2-PDC line was cultured in 6C/Colon 1B media, which includes advanced DMEM/F-12 (Thermo Fisher Scientific, cat. 12634028), 10 mM HEPES (Thermo Fisher Scientific, cat. 15630080), 1X GlutaMAX supplement (Thermo Fisher Scientific, cat. 35050061), 0.1 mg/mL primocin (InvivoGen, cat. ant-pm-2), 10% defined fetal bovine serum, heat inactivated (HyClone Laboratories Inc., cat. SH30070.03HI), 50% L-WRN conditioned media (ATCC, cat. CRL-3276), 1.25 mM N-Acetyl-L-cysteine (Sigma-Aldrich, cat. A9165), 10 mM nicotinamide (Sigma-Aldrich, cat. N0636), 1X B-27 supplement (Thermo Fisher Scientific, cat. 17504044), 1X N-2 supplement (Thermo Fisher Scientific, cat. 17502048), 10 microM Y-27632 dihydrochloride (Tocris Bioscience, cat. 1254), and 50 ng/mL human EGF recombinant protein (Thermo Fisher Scientific, cat. PHG0311). The 485176-168-R4-J1-PDC line was cultured in Panc media, which includes all 6C/Colon 1B media components plus 100 ng/mL human FGF-10 (Thermo Fisher Scientific, cat. 100-26), 500 nM SB-431542 (Selleckchem, cat. S1067), and gastrin (Tocris, cat. 3006).
[…]

[1] = second compound 0.0316 µM, first compound 0.0316 µM
[2] = second compound 0.0316 µM, first compound 0.1 µM
[3] = second compound 0.0316 µM, first compound 0.316 µM
[4] = second compound 0.0316 µM, first compound 1 µM
[5] = second compound 0.0316 µM, first compound 3.16 µM
[6] = second compound 0.0316 µM, first compound 10 µM
[7] = second compound 0.1 µM, first compound 0.0316 µM
[8] = second compound 0.1 µM, first compound 0.1 µM
[9] = second compound 0.1 µM, first compound 0.316 µM
[10] = second compound 0.1 µM, first compound 1 µM
[11] = second compound 0.1 µM, first compound 3.16 µM
[12] = second compound 0.1 µM, first compound 10 µM
[13] = second compound 0.316 µM, first compound 0.0316 µM
[14] = second compound 0.316 µM, first compound 0.1 µM
[15] = second compound 0.316 µM, first compound 0.316 µM
[16] = second compound 0.316 µM, first compound 1 µM
[17] = second compound 0.316 µM, first compound 3.16 µM
[18] = second compound 0.316 µM, first compound 10 µM
[19] = second compound 1 µM, first compound 0.0316 µM
[20] = second compound 1 µM, first compound 0.1 µM
[21] = second compound 1 µM, first compound 0.316 µM
[22] = second compound 1 µM, first compound 1 µM
[23] = second compound 1 µM, first compound 3.16 µM
[24] = second compound 1 µM, first compound 10 µM
[25] = second compound 3.16 µM, first compound 0.0316 µM
[26] = second compound 3.16 µM, first compound 0.1 µM
[27] = second compound 3.16 µM, first compound 0.316 µM
[28] = second compound 3.16 µM, first compound 1 µM
[29] = second compound 3.16 µM, first compound 3.16 µM
[30] = second compound 3.16 µM, first compound 10 µM
[31] = second compound 10 µM, first compound 0.0316 µM
[32] = second compound 10 µM, first compound 0.1 µM
[33] = second compound 10 µM, first compound 0.316 µM
[34] = second compound 10 µM, first compound 1 µM
[35] = second compound 10 µM, first compound 3.16 µM
[36] = second compound 10 µM, first compound 10 µM
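Note: spheroids exposed to compounds for one week before readout.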
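Throughout, for viability, T/C: percent viability relative to vehicle DMSO wells taken as 100%.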

CC1COCCN1c1cc(C2(S(C)(=N)=O)CC2)nc(-c2ccnc3[nH]ccc23)n1 (centres undefined) + CN(C)c1ccc(Nc2c3ccc(NC(=O)CCN4CCCC4)cc3nc3cc(NC(=O)CCN4CCCC4)ccc23)cc1
IC50 (second compound 0.0316 µM): > 10 µM | IC50 (second compound 0.1 µM): > 10 µM | IC50 (second compound 0.316 µM): > 10 µM | IC50 (second compound 1 µM): > 10 µM | IC50 (second compound 3.16 µM): > 10 µM | IC50 (second compound 10 µM): > 10 µM | viability, T/C [1]: 104% | viability, T/C [2]: 108% | viability, T/C [3]: 102% | viability, T/C [4]: 87.7% | viability, T/C [5]: 82.4% | viability, T/C [6]: 63.2% | viability, T/C [7]: 106% | viability, T/C [8]: 102% | viability, T/C [9]: 101% | viability, T/C [10]: 94.9% | viability, T/C [11]: 75.1% | viability, T/C [12]: 69.2% | viability, T/C [13]: 103% | viability, T/C [14]: 99.1% | viability, T/C [15]: 97.8% | viability, T/C [16]: 88.8% | viability, T/C [17]: 86.6% | viability, T/C [18]: 66.1% | viability, T/C [19]: 99.2% | viability, T/C [20]: 94.6% | viability, T/C [21]: 96.4% | viability, T/C [22]: 88% | viability, T/C [23]: 82.5% | viability, T/C [24]: 62.7% | viability, T/C [25]: 92.3% | viability, T/C [26]: 84.9% | viability, T/C [27]: 94.8% | viability, T/C [28]: 81.2% | viability, T/C [29]: 81.6% | viability, T/C [30]: 59.6% | viability, T/C [31]: 70.8% | viability, T/C [32]: 76.8% | viability, T/C [33]: 77.5% | viability, T/C [34]: 78% | viability, T/C [35]: 69.8% | viability, T/C [36]: 61.4%

COc1ccc([C@@H](O)c2cc(-c3ncnc4cc(N5CCOCC5)ccc34)c(F)cc2Cl)nn1 + CN(C)c1ccc(Nc2c3ccc(NC(=O)CCN4CCCC4)cc3nc3cc(NC(=O)CCN4CCCC4)ccc23)cc1
IC50 (second compound 0.0316 µM): > 10 µM | IC50 (second compound 0.1 µM): > 10 µM | IC50 (second compound 0.316 µM): > 10 µM | IC50 (second compound 1 µM): > 10 µM | IC50 (second compound 3.16 µM): > 10 µM | IC50 (second compound 10 µM): > 10 µM | viability, T/C [1]: 110% | viability, T/C [2]: 99.5% | viability, T/C [3]: 101% | viability, T/C [4]: 93.3% | viability, T/C [5]: 82.5% | viability, T/C [6]: 61% | viability, T/C [7]: 106% | viability, T/C [8]: 101% | viability, T/C [9]: 103% | viability, T/C [10]: 94.2% | viability, T/C [11]: 80.9% | viability, T/C [12]: 60.1% | viability, T/C [13]: 102% | viability, T/C [14]: 101% | viability, T/C [15]: 99.1% | viability, T/C [16]: 85.8% | viability, T/C [17]: 83.6% | viability, T/C [18]: 58.2% | viability, T/C [19]: 98.8% | viability, T/C [20]: 91.2% | viability, T/C [21]: 99.3% | viability, T/C [22]: 85.4% | viability, T/C [23]: 79% | viability, T/C [24]: 62.4% | viability, T/C [25]: 85.2% | viability, T/C [26]: 85.9% | viability, T/C [27]: 91.5% | viability, T/C [28]: 77.8% | viability, T/C [29]: 69.5% | viability, T/C [30]: 57.1% | viability, T/C [31]: 73.5% | viability, T/C [32]: 77.9% | viability, T/C [33]: 70.4% | viability, T/C [34]: 72.5% | viability, T/C [35]: 63.4% | viability, T/C [36]: 54.8%
